PubChem BioAssay (NCI)
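1) Cells in 96-well plates. 2) Compound, 48 h, 5 concentrations. 3) Linear interpolation between surrounding doses. 4) Unreached endpoint = highest concentration. TGI: concentration producing complete growth inhibition.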

Experiments:
Assay in all cases: DTP human tumour cell line panel, 48 h
786-0 renal = tested on: 786-0 renal
DU-145 prostate = tested on: DU-145 prostate
UACC-257 melanoma = tested on: UACC-257 melanoma
SK-MEL-28 melanoma = tested on: SK-MEL-28 melanoma
HCT-15 colon = tested on: HCT-15 colon
SNB-75 CNS = tested on: SNB-75 CNS
NCI-H522 lung = tested on: NCI-H522 lung
EKVX NSCLC = tested on: EKVX NSCLC
MDA-MB-435 = tested on: MDA-MB-435
BT-549 breast = tested on: BT-549 breast
HL-60(TB) leukemia = tested on: HL-60(TB) leukemia
KM12 colon = tested on: KM12 colon
CAKI-1 renal = tested on: CAKI-1 renal
ACHN renal = tested on: ACHN renal
MDA-MB-231 breast = tested on: MDA-MB-231 breast
A549 NSCLC = tested on: A549 NSCLC
COLO 205 colon = tested on: COLO 205 colon
MOLT-4 leukemia = tested on: MOLT-4 leukemia
TK-10 renal = tested on: TK-10 renal
OVCAR-3 ovarian = tested on: OVCAR-3 ovarian
SK-OV-3 ovarian = tested on: SK-OV-3 ovarian
IGROV1 ovarian = tested on: IGROV1 ovarian
K-562 leukemia = tested on: K-562 leukemia
NCI/ADR-RES ovarian = tested on: NCI/ADR-RES ovarian
SK-MEL-5 melanoma = tested on: SK-MEL-5 melanoma
U251 CNS = tested on: U251 CNS
MDA-N = tested on: MDA-N
HT29 colon = tested on: HT29 colon
SF-539 CNS = tested on: SF-539 CNS
NCI-H23 lung = tested on: NCI-H23 lung
SNB-19 CNS = tested on: SNB-19 CNS
HOP-62 NSCLC = tested on: HOP-62 NSCLC
RPMI-8226 leukemia = tested on: RPMI-8226 leukemia
SF-295 CNS = tested on: SF-295 CNS
OVCAR-4 ovarian = tested on: OVCAR-4 ovarian
LOX IMVI melanoma = tested on: LOX IMVI melanoma
SW-620 colon = tested on: SW-620 colon
SN12C renal = tested on: SN12C renal
UACC-62 melanoma = tested on: UACC-62 melanoma
NCI-H460 lung = tested on: NCI-H460 lung
NCI-H226 lung = tested on: NCI-H226 lung
CCRF-CEM leukemia = tested on: CCRF-CEM leukemia
M14 melanoma = tested on: M14 melanoma
OVCAR-8 ovarian = tested on: OVCAR-8 ovarian
A498 renal = tested on: A498 renal
OVCAR-5 ovarian = tested on: OVCAR-5 ovarian
T-47D breast = tested on: T-47D breast
HCT-116 colon = tested on: HCT-116 colon
HS 578T breast = tested on: HS 578T breast
SR leukemia = tested on: SR leukemia
PC-3 prostate = tested on: PC-3 prostate
SF-268 CNS = tested on: SF-268 CNS
MCF7 breast = tested on: MCF7 breast
SK-MEL-2 melanoma = tested on: SK-MEL-2 melanoma
MALME-3M melanoma = tested on: MALME-3M melanoma
UO-31 renal = tested on: UO-31 renal
HOP-92 NSCLC = tested on: HOP-92 NSCLC
RXF 393 renal = tested on: RXF 393 renal
HCC-2998 colon = tested on: HCC-2998 colon

CS(=O)(=O)OCC1OC(n2ccc(NC(=O)c3ccccc3)nc2=O)CC1OS(C)(=O)=O (configuration not stated)
TGI (786-0 renal): > 100 µM
TGI (DU-145 prostate): > 100 µM
TGI (UACC-257 melanoma): > 100 µM
TGI (SK-MEL-28 melanoma): > 100 µM
TGI (HCT-15 colon): > 100 µM
TGI (SNB-75 CNS): > 100 µM
TGI (NCI-H522 lung): > 100 µM
TGI (EKVX NSCLC): > 100 µM
TGI (MDA-MB-435): > 100 µM
TGI (BT-549 breast): > 100 µM
TGI (HL-60(TB) leukemia): > 100 µM
TGI (KM12 colon): > 100 µM
TGI (CAKI-1 renal): > 100 µM
TGI (ACHN renal): > 100 µM
TGI (MDA-MB-231 breast): > 100 µM
TGI (A549 NSCLC): > 100 µM
TGI (COLO 205 colon): > 100 µM
TGI (MOLT-4 leukemia): > 100 µM
TGI (TK-10 renal): > 100 µM
TGI (OVCAR-3 ovarian): > 100 µM
TGI (SK-OV-3 ovarian): > 100 µM
TGI (IGROV1 ovarian): > 100 µM
TGI (K-562 leukemia): > 100 µM
TGI (NCI/ADR-RES ovarian): > 100 µM
TGI (SK-MEL-5 melanoma): > 100 µM
TGI (U251 CNS): > 100 µM
TGI (MDA-N): > 100 µM
TGI (HT29 colon): > 100 µM
TGI (SF-539 CNS): > 100 µM
TGI (NCI-H23 lung): > 100 µM
TGI (SNB-19 CNS): > 100 µM
TGI (HOP-62 NSCLC): > 100 µM
TGI (RPMI-8226 leukemia): > 100 µM
TGI (SF-295 CNS): > 100 µM
TGI (OVCAR-4 ovarian): > 100 µM
TGI (LOX IMVI melanoma): > 100 µM
TGI (SW-620 colon): > 100 µM
TGI (SN12C renal): > 100 µM
TGI (UACC-62 melanoma): > 100 µM
TGI (NCI-H460 lung): > 100 µM
TGI (NCI-H226 lung): > 100 µM
TGI (CCRF-CEM leukemia): > 100 µM
TGI (M14 melanoma): > 100 µM
TGI (OVCAR-8 ovarian): > 100 µM
TGI (A498 renal): > 100 µM
TGI (OVCAR-5 ovarian): > 100 µM
TGI (T-47D breast): > 100 µM
TGI (HCT-116 colon): > 100 µM
TGI (HS 578T breast): > 100 µM
TGI (SR leukemia): > 100 µM
TGI (PC-3 prostate): > 100 µM
TGI (SF-268 CNS): > 100 µM
TGI (MCF7 breast): > 100 µM
TGI (SK-MEL-2 melanoma): > 100 µM

C#CCn1ncc2c(SC)ncnc21
TGI (786-0 renal): > 100 µM
TGI (DU-145 prostate): > 100 µM
TGI (UACC-257 melanoma): > 100 µM
TGI (MALME-3M melanoma): > 100 µM
TGI (SK-MEL-28 melanoma): > 100 µM
TGI (HCT-15 colon): > 100 µM
TGI (UO-31 renal): > 100 µM
TGI (SNB-75 CNS): 97.8 µM
TGI (NCI-H522 lung): > 100 µM
TGI (EKVX NSCLC): > 100 µM
TGI (MDA-MB-435): > 100 µM
TGI (BT-549 breast): > 100 µM
TGI (HOP-92 NSCLC): > 100 µM
TGI (KM12 colon): > 100 µM
TGI (CAKI-1 renal): > 100 µM
TGI (ACHN renal): > 100 µM
TGI (MDA-MB-231 breast): > 100 µM
TGI (A549 NSCLC): > 100 µM
TGI (COLO 205 colon): > 100 µM
TGI (MOLT-4 leukemia): > 100 µM
TGI (TK-10 renal): > 100 µM
TGI (OVCAR-3 ovarian): > 100 µM
TGI (SK-OV-3 ovarian): > 100 µM
TGI (IGROV1 ovarian): > 100 µM
TGI (K-562 leukemia): > 100 µM
TGI (NCI/ADR-RES ovarian): > 100 µM
TGI (SK-MEL-5 melanoma): > 100 µM
TGI (U251 CNS): > 100 µM
TGI (MDA-N): > 100 µM
TGI (HT29 colon): > 100 µM
TGI (SF-539 CNS): > 100 µM
TGI (NCI-H23 lung): > 100 µM
TGI (SNB-19 CNS): > 100 µM
TGI (RXF 393 renal): > 100 µM
TGI (HOP-62 NSCLC): > 100 µM
TGI (RPMI-8226 leukemia): > 100 µM
TGI (SF-295 CNS): > 100 µM
TGI (OVCAR-4 ovarian): > 100 µM
TGI (LOX IMVI melanoma): > 100 µM
TGI (SW-620 colon): > 100 µM
TGI (SN12C renal): > 100 µM
TGI (UACC-62 melanoma): > 100 µM
TGI (NCI-H460 lung): > 100 µM
TGI (NCI-H226 lung): > 100 µM
TGI (CCRF-CEM leukemia): > 100 µM
TGI (M14 melanoma): > 100 µM
TGI (OVCAR-8 ovarian): > 100 µM
TGI (A498 renal): > 100 µM
TGI (OVCAR-5 ovarian): > 100 µM
TGI (T-47D breast): > 100 µM
TGI (HCT-116 colon): > 100 µM
TGI (HS 578T breast): > 100 µM
TGI (SR leukemia): > 100 µM
TGI (HCC-2998 colon): > 100 µM
TGI (PC-3 prostate): > 100 µM
TGI (SF-268 CNS): > 100 µM
TGI (MCF7 breast): > 100 µM
TGI (SK-MEL-2 melanoma): > 100 µM
